Like-named read-outs stand apart in the source and are kept apart here. Where a SMILES comes first, the peptide text is derived from it. [ ]: non-standard residue; d: D form. The star is where a group is joined. ξ: configuration not given here. Butanoyl(3R-OH) = C[C@@H](O)CC(=O)*; dPhLac = O=C(O)[C@H](O)Cc1ccccc1; dOrn = NCCC[C@@H](N)C(=O)O; Hiv = CC(C)[C@H](O)C(=O)O; SCH2CH2NHAc = CC(=O)NCCS*; Orn = NCCC[C@H](N)C(=O)O; ξP = O=C(O)C1CCCN1
What was measured:
[1] = target: T1, TycC TE (excised TE domain protein from the tyrocidine NRPS) (Brevibacillus parabrevis, UniProt O30409); format: biochemical; conditions: for cyclization rate compared with the substrate in Example 3: data not shown; for kcat / Km: Table 1, macrocyclization of peptide-SNAC substrate, 25 mM MOPS, pH 7.0; for thioester hydrolysis by TycC TE (result in words): kinetic parameters similar to the wild-type substrate (Ex. 3)
T1 construct: excised TE domain protein from the tyrocidine NRPS (TycC TE); made in house
T1 sequence (O30409 6238-6486): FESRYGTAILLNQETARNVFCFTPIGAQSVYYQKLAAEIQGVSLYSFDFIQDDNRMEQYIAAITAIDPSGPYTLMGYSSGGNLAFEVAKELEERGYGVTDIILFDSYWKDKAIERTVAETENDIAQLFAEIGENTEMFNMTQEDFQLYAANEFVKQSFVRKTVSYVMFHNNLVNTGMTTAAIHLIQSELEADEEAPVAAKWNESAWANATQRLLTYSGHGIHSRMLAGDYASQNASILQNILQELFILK
Experimental: Macrocyclization reactions were carried out in 25 mM MOPS, pH 7.0 in a total volume of 400 μL. Reactions were initiated by addition of TycC TE and quenched at various time points by the addition of 25 μL 1.7% TFA/water, flash frozen in liquid nitrogen and stored at −80° C. (for Ex. 13, reactions were quenched by the addition of sodium phosphate, pH 5.3, to 100 mM). The reactions were then thawed, 85 μL acetonitrile added, and analyzed by analytical HPLC with monitoring at 220 nm (20% to 80% acetonitrile in 0.1% TFA/water, or in 25 mM potassium phosphate, pH 5.3 for Ex. 13, over 35 minutes, Vydac protein and peptide C18 column). Initial rates were calculated using 1 minute time points. Peptide-SNAC and reaction product concentrations were determined for all Tyr-containing peptides based on the estimated extinction coefficient ε (280 nm)=1,280 M^−1 cm^−1, which agrees with the experimentally determined ε (280 nm) of Ex. 1. For peptide-SNACs not containing Tyr, ε (220 nm) was determined experimentally, and concentrations of corresponding cyclic products determined by assuming equal ε (220 nm) values for the peptide-SNAC and cyclic product.

[2] = target: T2, excised TE domain protein from the surfactin synthetase (Bacillus subtilis, UniProt Q08787); assay: Cyclization of thioester substrate to macrolactone by excised surfactin synthetase TE domain; format: biochemical
T2 construct: the excised TE domain protein from the surfactin synthetase protein system; made in house
T2 sequence (Q08787 1059-1271): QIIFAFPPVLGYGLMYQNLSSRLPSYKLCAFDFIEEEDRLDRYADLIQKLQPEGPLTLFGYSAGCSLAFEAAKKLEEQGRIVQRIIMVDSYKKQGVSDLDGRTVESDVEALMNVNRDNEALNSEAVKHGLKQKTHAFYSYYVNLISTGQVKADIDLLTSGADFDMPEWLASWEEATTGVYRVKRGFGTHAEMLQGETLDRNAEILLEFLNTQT
Excerpt: In accord with the present invention, other linear substrate molecules can be cyclized by other excised TE domain proteins besides the TE domain protein excised from the tyrocidine NRPS. […] The excised surfactin TE domain protein selectively cyclizes substrates with the (R)-hydroxybutanamide nucleophile versus substrates with the (S)-hydroxybutamide nucleophile.
The observed specificity of the surfactin TE domain supports that TE domains can cyclize a variety of substrates provided that certain key recognition elements that are generally near the parts of the molecule that are joined in the cyclization reaction are present. For example, substrate 27 contains a change in the sequence of the heptapeptide compared to the wild-type surfactin sequence (D-Leu3 is changed to D-Orn), but this substrate is nevertheless cyclized by the excised TE domain from surfactin synthetase. When the (R)-hydroxybutanamide nucleophile in compound 27 was changed to a (S)-hydroxybutanamide nucleophile (a change near the parts of the molecule joined by the cylization reaction), cyclization activity was abolished.

Q: Which “cyclization by TycC TE domain (result in words)” value (“cyclization by TycC TE domain” for short) [1] does the source give for `CC(=O)NCCSC(=O)[C@H](CC(C)C)NC(=O)[C@H](CCCN)NC(=O)[C@@H](NC(=O)[C@H](Cc1ccc(O)cc1)NC(=O)[C@H](CCC(N)=O)NC(=O)[C@H](CC(N)=O)NC(=O)[C@@H](Cc1ccccc1)NC(=O)[C@H](Cc1ccccc1)NC(=O)C1CCCN1C(=O)[C@H](O)Cc1ccccc1)C(C)C` (stereo partly drawn) [compound 24] (H-[dPhLac][ξP]F[dF]NQYV[Orn]L-SCH2CH2NHAc) here?
A: macrocyclized

Q: `CC(=O)NCCSC(=O)[C@H](CC(C)C)NC(=O)[C@H](CCCN)NC(=O)[C@@H](NC(=O)[C@H](Cc1ccc(O)cc1)NC(=O)[C@H](CCC(N)=O)NC(=O)[C@H](CC(N)=O)NC(=O)[C@@H](Cc1ccccc1)OC(=O)[C@H](Cc1ccccc1)NC(=O)C1CCCN1C(=O)[C@H](N)Cc1ccccc1)C(C)C` (stereo partly drawn) [compound 22] (H-[dF][ξP]F[dPhLac]NQYV[Orn]L-SCH2CH2NHAc) was tested. Which “cyclization rate compared with the substrate in Example 3” value [1] did it give?
A: similar

Q: With “D-Ala-Pro-Phe-D-Phe-Asn-Gln-Tyr-Val-Orn-Leu-SNAC [Example 5]” as the compound, how does the “cyclization by TycC TE domain” value [1] read?
A: arrests cyclization activity

Q: And the kcat [1]?
A: 0

Q: And the “thioester hydrolysis by TycC TE (result in words)” value [1]?
A: observed

Q: With `CC(=O)NCCSC(=O)[C@H](CC(C)C)NC(=O)[C@H](CCCN)NC(=O)[C@@H](NC(=O)[C@H](Cc1ccc(O)cc1)NC(=O)[C@H](CCC(N)=O)NC(=O)[C@H](CC(N)=O)NC(=O)[C@@H](Cc1ccccc1)NC(=O)[C@H](Cc1ccccc1)NC(=O)[C@@H]1CCCN1C(=O)[C@H](N)Cc1ccccc1)C(C)C` [Example 3, D-Phe-Pro-Phe-D-Phe-Asn-Gln-Tyr-Val-Orn-Leu-SNAC] (H-[dF]PF[dF]NQYV[Orn]L-SCH2CH2NHAc) as the compound, how does the Km [1] read?
A: 3 µM

Q: For “Phe-Pro-Phe-D-Phe-Asn-Gln-Tyr-Val-Orn-Leu-SNAC [Example 4]”, which “cyclization by TycC TE domain” value [1] is on record?
A: arrests cyclization activity

Q: What about the kcat [1] of the same compound?
A: 0

Q: And the “thioester hydrolysis by TycC TE (result in words)” value [1]?
A: observed

Q: With “D-Phe-Pro-Val-Orn-Leu-SNAC [pentapeptide-SNAC]” as the compound, how does the “chain dimerization and subsequent cyclization to gramicidin S” value ([1]; incubation of pentapeptide-SNAC with TycC TE) read?
A: efficient chain dimerization and subsequent cyclization occurred

Q: For `CC(=O)NCCSC(=O)[C@H](CC(C)C)NC(=O)[C@@H](CC(C)C)NC(=O)[C@H](CC(=O)O)NC(=O)[C@@H](NC(=O)[C@@H](CCCN)NC(=O)[C@H](CC(C)C)NC(=O)[C@H](CCC(=O)O)NC(=O)C[C@@H](C)O)C(C)C` [compound 27] ({Butanoyl(3R-OH)}-EL[dOrn]VD[dL]L-SCH2CH2NHAc), which “cyclization to macrolactone by excised surfactin TE domain” value [2] is on record?
A: efficiently cyclized

Q: What does the source list for “D-Phe-Pro-Val-Orn-Leu-D-Phe-Pro-Val-Orn-Leu-SNAC [Example 17]”?
A: kcat [1]: 12; Km ([1]; read-out: KM): 5 µM; KM as compared to Ex. 3 ([1]; cyclization): comparable; reduction in kcat relative to wild-type substrate (Ex. 3) ([1]; cyclization): 5 fold

Q: For `CC(=O)NCCSC(=O)[C@H](CC(C)C)NC(=O)[C@H](CCCN)NC(=O)[C@@H](OC(=O)[C@H](Cc1ccc(O)cc1)NC(=O)[C@H](CCC(N)=O)NC(=O)[C@H](CC(N)=O)NC(=O)[C@@H](Cc1ccccc1)NC(=O)[C@H](Cc1ccccc1)NC(=O)C1CCCN1C(=O)[C@H](N)Cc1ccccc1)C(C)C` (stereo partly drawn) [compound 23] (H-[dF][ξP]F[dF]NQY[Hiv][Orn]L-SCH2CH2NHAc), which “cyclization rate compared with the substrate in Example 3” value [1] is on record?
A: similar
